Experimental data taken from patent US5846720A, “Methods of determining chemicals that modulate expression of genes associated with cardiovascular disease” (Oncogene Science, Inc., priority 1996, dated 1998).

Legend:
G-CSF mRNA = test: S1 nuclease protection, G-CSF mRNA; format: cell-based, human
Procedure: (§1) S1 Nuclease protection assays were carried out as described in reference 118.
(§2) To further confirm, that compounds that had been identified in a luciferase expression assay using a G-CSF specific reporter cell line would be active in inducing transcription of the endogenous G-CSF gene, cells from the parental cell line 5637 used to construct the reporter cell line were incubated with cycloheximide (25 ug/ml), DMSO (0.5%,solvent control) and low, medium and high concentrations of the compounds 542 (10, 50, 250 μM),1255 (20, 100, 500 uM), 1793(0.25, 1.2, 6.25 μM) and 1904 (20, 100 uM) for 18 hours. RNA was extracted and the concentration of G-CSF, GM-CSF and gamma-actin mRNA was determined by the S1 protection method as described in above. The positions of G-CSF GM-CSF and gamma-actin specific protected fragments are indicated (G, GM, A) at the left side of the gel (FIG. 37).

GM-CSF mRNA = test: S1 nuclease protection, GM-CSF mRNA; format: cell-based, human; conditions: 5637 cells, 18 hours
Procedure: as §1, §2

[1] = system: 5637 bladder carcinoma cells; test: G-CSF secretion, two-antibody sandwich immunoassay; format: cell-based, human; conditions: 48 hours, serum-containing media
Procedure: Supernatants from 5637 bladder carcinoma cells incubated with chemicals registering as positives in the G-CSF promoter/luciferase high throughput assay were assayed for secreted G-CSF protein using the two-antibody sandwich immunoassay (83). The G-CSF Assay kit manufactured by Oncogene Science, Inc. was used and the manufacturer's instructions were followed.
The levels of G-CSF in the cell supernatants were determined by a sandwich-antibody assay as described in above (FIG. 42).

FRE cells = test: MTT respiratory inhibition cytotoxicity assay versus luciferase induction in G21; format: cell-based; conditions: G21 reporter cells vs FRE cells, 6 hours
Text: To determine cytotoxic concentrations of chemicals registering as positives in the high throughput luciferase assay the MTT cytotoxicity assay was employed (82). In this assay, a tetrazolium salt [3-(4,5-dimethylthiazol-2-yl)-2,5-diphenyl -tetrazolium bromide, MTT] is reduced to a colored formazon product by reducing enzymes present only in living metabolically active cells.
To address the question whether the induction of G-CSF, and GM-CSF transcription by the compound #542 was a specific effect or rather a phenomenon linked to a potential sensitivity of these promoters to stress exerted by toxic compounds, the concentration dependency of induction of luciferase activity in the reporter cell line G21 was compared to the concentration dependency of inhibition of respiration in FRE cells. Cells were seeded into 96 well microtiter plates (20,000 cells/well) and cultured overnight. Compound #542 was added at various concentrations and the cells were incubated for 6 hours. Luciferase activity was determined as described above. The MTT-colorimetric assay was carried out on identically treated samples of FRE cells. Induction of luciferase reporter signal (plain line) and on inhibition of respiration (dashed line) are plotted versus the concentrations of compound (FIG. 40). […]

Nc1nc(=O)n([C@H]2C[C@H](O)[C@@H](CO)O2)cc1Br [#542]
amount of G-CSF mRNA (S1 nuclease protection) (G-CSF mRNA; 5637 cells, 18 hours): increased mRNA production | levels of endogenous G-CSF mRNA (G-CSF mRNA; method not stated at the place): stimulate levels of endogenous G-CSF mRNA | amount of GM-CSF mRNA (S1 nuclease protection) (GM-CSF mRNA): increased the amount of GM-CSF mRNA | G-CSF secretion [1]: increased G-CSF secretion | factor between ED50 for induction of luciferase activity and ED50 for inhibition of respiration (FRE cells): ~10 factor
